Laboratory results as given in US9149038B2, “4-amino-6-(heterocyclic)picolinates and 6-amino-2-(heterocyclic)pyrimidine-4-carboxylates and their use as herbicides” (Dow AgroSciences LLC, priority 2013, dated 2015).
Like-named read-outs stand apart in the source and are kept apart here.

Test system: Wheat and Barley and weed species
Test: Post-Emergent Test III: postemergent herbicidal activity in wheat and barley, visual rating after 21 d and probit GR20/GR50/GR80/GR90 (Tables 9-13)
Format: in vivo
Conditions: for pest or weed control at 17.5 g/ha / pest or weed control at 35 g/ha / pest or weed control at 70 g/ha: post-emergence, 504 h
Text: Herbicidal evaluations were made visually on a scale of 0 to 100 where 0 represents no activity and 100 represents complete plant death.
Seeds of the desired test plant species were planted in Sun Gro MetroMix® 306 planting mixture, which typically has a pH of 6.0 to 6.8 and an organic matter content of about 30 percent, in plastic pots with a surface area of 103.2 square centimeters (cm^2). When required to ensure good germination and healthy plants, a fungicide treatment and/or other chemical or physical treatment was applied. The plants were grown for 7-36 days (d) in a greenhouse with an approximate 14 hour (h) photoperiod which was maintained at about 18° C. during the day and 17° C. during the night. Nutrients and water were added on a regular basis and supplemental lighting was provided with overhead metal halide 1000-Watt lamps as necessary. The plants were employed for testing when they reached the second or third true leaf stage.
A weighed amount, determined by the highest rate to be tested, of each test compound was placed in a 25 mL glass vial and was dissolved in 4 mL of a 97:3 v/v mixture of acetone and DMSO to obtain concentrated stock solutions. […] The concentrated stock solutions obtained were diluted with 20 mL of an aqueous mixture containing acetone, water, isopropyl alcohol, DMSO, Agri-Dex crop oil concentrate, and X-77 surfactant in a 48:39:10:1.5:1.5:0.02 v/v ratio to obtain spray solutions containing the highest application rates. Additional application rates were obtained by serial dilution of 12 mL of the high rate solution into a solution containing 2 mL of a 97:3 v/v mixture of acetone and DMSO and 10 mL of an aqueous mixture containing acetone, water, isopropyl alcohol, DMSO, Agri-Dex crop oil concentrate, and X-77 surfactant in a 48:39:10:1.5:1.5:0.02 v/v ratio to obtain ½×, ¼×, ⅛× and 1/16× rates of the high rate. Compound requirements are based upon a 12 mL application volume at a rate of 187 liters per hectare (L/ha). Formulated compounds were applied to the plant material with an overhead Mandel track sprayer equipped with 8002E nozzles calibrated to deliver 187 L/ha over an application area of 0.503 square meters at a spray height of 18 inches (43 cm) above the average plant canopy height. Control plants were sprayed in the same manner with the solvent blank.
The treated plants and control plants were placed in a greenhouse as described above and watered by subirrigation to prevent wash-off of the test compounds. After 21 d, the condition of the test plants as compared with that of the untreated plants was determined visually and scored on a scale of 0 to 100 percent where 0 corresponds to no injury and 100 corresponds to complete kill and are presented as indicated in Table 4.
By applying the well-accepted probit analysis as described by J. Berkson in Journal of the American Statistical Society, 48, 565 (1953) and by D. Finney in “Probit Analysis” Cambridge University Press (1952), herbicidal injury of a specific compound at various rates can be used to calculate GR20, GR50, GR80 and GR90 values, which are defined as growth reduction factors that correspond to the effective dose of herbicide required to provide plant growth reduction (GR) of 20 percent, 50 percent, 80 percent and 90 percent, respectively. Probit analysis was applied to data collected from multiple dose rates of individual compounds utilizing the procedures explained in the following examples. The data for some of the dose rates and analysis of all of the dose rates are captured in the following tables.

`Nc1c(F)c(-c2ccc(Cl)c3c2OC(F)(F)O3)nc(C(=O)O)c1Cl` [Compound 82] was tested, and the “Visual Growth Reduction (%) 21 Days After Application CIRAR” value (CIRAR Canada thistle (Cirsium arvense), 17.5 g ai/ha) was “B (85-94)”, the “Visual Growth Reduction (%) 21 Days After Application CIRAR” value (CIRAR Canada thistle (Cirsium arvense), 35 g ai/ha) was “B (85-94)” and the “Visual Growth Reduction (%) 21 Days After Application CIRAR” value (CIRAR Canada thistle (Cirsium arvense), 70 g ai/ha) was “B (85-94)”. The “GR50 CIRAR” value (CIRAR Canada thistle (Cirsium arvense), growth reduction of 50%, probit analysis) was 1 g ai/ha, the “GR80 CIRAR” value (CIRAR Canada thistle (Cirsium arvense), growth reduction of 80%, probit analysis) was 10 g ai/ha and the “GR90 CIRAR” value (CIRAR Canada thistle (Cirsium arvense), growth reduction of 90%, probit analysis) was 34 g ai/ha. The “Visual Growth Reduction (%) 21 Days After Application GALAP” value (GALAP cleavers (Galium aparine), 17.5 g ai/ha) was “D (60-74)”, the “Visual Growth Reduction (%) 21 Days After Application GALAP” value (GALAP cleavers (Galium aparine), 35 g ai/ha) was “B (85-94)” and the “Visual Growth Reduction (%) 21 Days After Application GALAP” value (GALAP cleavers (Galium aparine), 70 g ai/ha) was “B (85-94)”. For the same molecule, the “GR50 GALAP” value (GALAP cleavers (Galium aparine), growth reduction of 50%, probit analysis) was 10 g ai/ha, the “GR80 GALAP” value (GALAP cleavers (Galium aparine), growth reduction of 80%, probit analysis) was 33 g ai/ha and the “GR90 GALAP” value (GALAP cleavers (Galium aparine), growth reduction of 90%, probit analysis) was 64 g ai/ha. For the same molecule, the “GR20 HORVS” value (HORVS barley, spring (crop), growth reduction of 20%, probit analysis) was 7 g ai/ha, the pest or weed control at 17.5 g/ha (Hordeum vulgare, HORVS barley, spring (crop), 17.5 g ai/ha, read-out: Visual Growth Reduction (%) 21 Days After Application HORVS) was 30 to 44% and the pest or weed control at 35 g/ha (Hordeum vulgare, HORVS barley, spring (crop), 35 g ai/ha, read-out: Visual Growth Reduction (%) 21 Days After Application HORVS) was 60 to 74%. The pest or weed control at 70 g/ha (Hordeum vulgare, HORVS barley, spring (crop), 70 g ai/ha, read-out: Visual Growth Reduction (%) 21 Days After Application HORVS) was 75 to 84%, the “Visual Growth Reduction (%) 21 Days After Application KCHSC” value (KCHSC kochia (Kochia scoparia), 17.5 g ai/ha) was “D (60-74)” and the “Visual Growth Reduction (%) 21 Days After Application KCHSC” value (KCHSC kochia (Kochia scoparia), 35 g ai/ha) was “C (75-84)”. The “Visual Growth Reduction (%) 21 Days After Application KCHSC” value (KCHSC kochia (Kochia scoparia), 70 g ai/ha) was “C (75-84)”, the “GR50 KCHSC” value (KCHSC kochia (Kochia scoparia), growth reduction of 50%, probit analysis) was 2 g ai/ha and the “GR80 KCHSC” value (KCHSC kochia (Kochia scoparia), growth reduction of 80%, probit analysis) was 83 g ai/ha. The “GR90 KCHSC” value (KCHSC kochia (Kochia scoparia), growth reduction of 90%, probit analysis) was >140 g ai/ha, the “Visual Growth Reduction (%) 21 Days After Application LAMPU” value (LAMPU purple deadnettle (Lamium purpureum), 17.5 g ai/ha) was “G (0-29)” and the “Visual Growth Reduction (%) 21 Days After Application LAMPU” value (LAMPU purple deadnettle (Lamium purpureum), 35 g ai/ha) was “G (0-29)”. For the same molecule, the “Visual Growth Reduction (%) 21 Days After Application LAMPU” value (LAMPU purple deadnettle (Lamium purpureum), 70 g ai/ha) was “F (30-44)”, the “GR50 LAMPU” value (LAMPU purple deadnettle (Lamium purpureum), growth reduction of 50%, probit analysis) was 89 g ai/ha and the “GR80 LAMPU” value (LAMPU purple deadnettle (Lamium purpureum), growth reduction of 80%, probit analysis) was 131 g ai/ha. The “GR90 LAMPU” value (LAMPU purple deadnettle (Lamium purpureum), growth reduction of 90%, probit analysis) was >140 g ai/ha, the “Visual Growth Reduction (%) 21 Days After Application MATCH” value (MATCH wild chamomile (Matricaria recutita L.), 17.5 g ai/ha) was “C (75-84)” and the “Visual Growth Reduction (%) 21 Days After Application MATCH” value (MATCH wild chamomile (Matricaria recutita L.), 35 g ai/ha) was “C (75-84)”. The “Visual Growth Reduction (%) 21 Days After Application MATCH” value (MATCH wild chamomile (Matricaria recutita L.), 70 g ai/ha) was “B (85-94)”, the “GR50 MATCH” value (MATCH wild chamomile (Matricaria recutita L.), growth reduction of 50%, probit analysis) was 18 g ai/ha and the “GR80 MATCH” value (MATCH wild chamomile (Matricaria recutita L.), growth reduction of 80%, probit analysis) was 35 g ai/ha. The “GR90 MATCH” value (MATCH wild chamomile (Matricaria recutita L.), growth reduction of 90%, probit analysis) was 49 g ai/ha, the “Visual Growth Reduction (%) 21 Days After Application PAPRH” value (PAPRH common poppy (Papaver rhoeas), 17.5 g ai/ha) was “G (0-29)” and the “Visual Growth Reduction (%) 21 Days After Application PAPRH” value (PAPRH common poppy (Papaver rhoeas), 35 g ai/ha) was “G (0-29)”. The “Visual Growth Reduction (%) 21 Days After Application PAPRH” value (PAPRH common poppy (Papaver rhoeas), 70 g ai/ha) was “F (30-44)”, the “GR50 PAPRH” value (PAPRH common poppy (Papaver rhoeas), growth reduction of 50%, probit analysis) was 113 g ai/ha and the “GR80 PAPRH” value (PAPRH common poppy (Papaver rhoeas), growth reduction of 80%, probit analysis) was >140 g ai/ha. The “GR90 PAPRH” value (PAPRH common poppy (Papaver rhoeas), growth reduction of 90%, probit analysis) was >140 g ai/ha, the “Visual Growth Reduction (%) 21 Days After Application SASKR” value (SASKR Russian thistle (Salsola iberica), 17.5 g ai/ha) was “B (85-94)” and the “Visual Growth Reduction (%) 21 Days After Application SASKR” value (SASKR Russian thistle (Salsola iberica), 35 g ai/ha) was “B (85-94)”. The “Visual Growth Reduction (%) 21 Days After Application SASKR” value (SASKR Russian thistle (Salsola iberica), 70 g ai/ha) was “B (85-94)”, the “GR50 SASKR” value (SASKR Russian thistle (Salsola iberica), growth reduction of 50%, probit analysis) was 1 g ai/ha and the “GR80 SASKR” value (SASKR Russian thistle (Salsola iberica), growth reduction of 80%, probit analysis) was 10 g ai/ha. The “GR90 SASKR” value (SASKR Russian thistle (Salsola iberica), growth reduction of 90%, probit analysis) was 32 g ai/ha, the “Visual Growth Reduction (%) 21 Days After Application SINAR” value (SINAR wild mustard (Sinapis arvensis), 17.5 g ai/ha) was “A (95-100)” and the “Visual Growth Reduction (%) 21 Days After Application SINAR” value (SINAR wild mustard (Sinapis arvensis), 35 g ai/ha) was “A (95-100)”. For the same molecule, the “Visual Growth Reduction (%) 21 Days After Application SINAR” value (SINAR wild mustard (Sinapis arvensis), 70 g ai/ha) was “A (95-100)”, the “GR50 SINAR” value (SINAR wild mustard (Sinapis arvensis), growth reduction of 50%, probit analysis) was 0.02 g ai/ha and the “GR80 SINAR” value (SINAR wild mustard (Sinapis arvensis), growth reduction of 80%, probit analysis) was 0.5 g ai/ha. The “GR90 SINAR” value (SINAR wild mustard (Sinapis arvensis), growth reduction of 90%, probit analysis) was 2 g ai/ha, the “GR20 TRZAS” value (TRZAS wheat, spring (crop), growth reduction of 20%, probit analysis) was 4 g ai/ha and the pest or weed control at 17.5 g/ha (Triticum aestivum, TRZAS wheat, spring (crop), 17.5 g ai/ha, read-out: Visual Growth Reduction (%) 21 Days After Application TRZAS) was 60 to 74%. For the same molecule, the pest or weed control at 35 g/ha (Triticum aestivum, TRZAS wheat, spring (crop), 35 g ai/ha, read-out: Visual Growth Reduction (%) 21 Days After Application TRZAS) was 60 to 74%, the pest or weed control at 70 g/ha (Triticum aestivum, TRZAS wheat, spring (crop), 70 g ai/ha, read-out: Visual Growth Reduction (%) 21 Days After Application TRZAS) was 75 to 84% and the “Visual Growth Reduction (%) 21 Days After Application VERPE” value (VERPE bird's-eye speedwell (veronica persica), 17.5 g ai/ha) was “G (0-29)”. For the same molecule, the “Visual Growth Reduction (%) 21 Days After Application VERPE” value (VERPE bird's-eye speedwell (veronica persica), 35 g ai/ha) was “G (0-29)”, the “Visual Growth Reduction (%) 21 Days After Application VERPE” value (VERPE bird's-eye speedwell (veronica persica), 70 g ai/ha) was “G (0-29)” and the “GR50 VERPE” value (VERPE bird's-eye speedwell (veronica persica), growth reduction of 50%, probit analysis) was >140 g ai/ha. The “GR80 VERPE” value (VERPE bird's-eye speedwell (veronica persica), growth reduction of 80%, probit analysis) was >140 g ai/ha, the “GR90 VERPE” value (VERPE bird's-eye speedwell (veronica persica), growth reduction of 90%, probit analysis) was >140 g ai/ha and the “Visual Growth Reduction (%) 21 Days After Application VIOTR” value (VIOTR wild pansy (Viola tricolor), 17.5 g ai/ha) was “E (45-59)”. The “Visual Growth Reduction (%) 21 Days After Application VIOTR” value (VIOTR wild pansy (Viola tricolor), 35 g ai/ha) was “D (60-74)”, the “Visual Growth Reduction (%) 21 Days After Application VIOTR” value (VIOTR wild pansy (Viola tricolor), 70 g ai/ha) was “D (60-74)” and the “GR50 VIOTR” value (VIOTR wild pansy (Viola tricolor), growth reduction of 50%, probit analysis) was 31 g ai/ha. For the same molecule, the “GR80 VIOTR” value (VIOTR wild pansy (Viola tricolor), growth reduction of 80%, probit analysis) was 62 g ai/ha and the “GR90 VIOTR” value (VIOTR wild pansy (Viola tricolor), growth reduction of 90%, probit analysis) was 90 g ai/ha.
